Our source for the IC50 values is patent US20220315591A1, “NEW EGFR INHIBITORS” (Hoffmann-La Roche Inc., priority 2019, published 2022).

In this test the target is T1, EGFR TMLRCS (BaF3-TMLRCS cell line) (Homo sapiens, UniProt P00533, C797S/L858R/T790M).
T1 construct: host or cells: Ba/F3 (BaF3-TMLRCS), puromycin-selected
T1 sequence (P00533 25-1210 T790M/C797S/L858R): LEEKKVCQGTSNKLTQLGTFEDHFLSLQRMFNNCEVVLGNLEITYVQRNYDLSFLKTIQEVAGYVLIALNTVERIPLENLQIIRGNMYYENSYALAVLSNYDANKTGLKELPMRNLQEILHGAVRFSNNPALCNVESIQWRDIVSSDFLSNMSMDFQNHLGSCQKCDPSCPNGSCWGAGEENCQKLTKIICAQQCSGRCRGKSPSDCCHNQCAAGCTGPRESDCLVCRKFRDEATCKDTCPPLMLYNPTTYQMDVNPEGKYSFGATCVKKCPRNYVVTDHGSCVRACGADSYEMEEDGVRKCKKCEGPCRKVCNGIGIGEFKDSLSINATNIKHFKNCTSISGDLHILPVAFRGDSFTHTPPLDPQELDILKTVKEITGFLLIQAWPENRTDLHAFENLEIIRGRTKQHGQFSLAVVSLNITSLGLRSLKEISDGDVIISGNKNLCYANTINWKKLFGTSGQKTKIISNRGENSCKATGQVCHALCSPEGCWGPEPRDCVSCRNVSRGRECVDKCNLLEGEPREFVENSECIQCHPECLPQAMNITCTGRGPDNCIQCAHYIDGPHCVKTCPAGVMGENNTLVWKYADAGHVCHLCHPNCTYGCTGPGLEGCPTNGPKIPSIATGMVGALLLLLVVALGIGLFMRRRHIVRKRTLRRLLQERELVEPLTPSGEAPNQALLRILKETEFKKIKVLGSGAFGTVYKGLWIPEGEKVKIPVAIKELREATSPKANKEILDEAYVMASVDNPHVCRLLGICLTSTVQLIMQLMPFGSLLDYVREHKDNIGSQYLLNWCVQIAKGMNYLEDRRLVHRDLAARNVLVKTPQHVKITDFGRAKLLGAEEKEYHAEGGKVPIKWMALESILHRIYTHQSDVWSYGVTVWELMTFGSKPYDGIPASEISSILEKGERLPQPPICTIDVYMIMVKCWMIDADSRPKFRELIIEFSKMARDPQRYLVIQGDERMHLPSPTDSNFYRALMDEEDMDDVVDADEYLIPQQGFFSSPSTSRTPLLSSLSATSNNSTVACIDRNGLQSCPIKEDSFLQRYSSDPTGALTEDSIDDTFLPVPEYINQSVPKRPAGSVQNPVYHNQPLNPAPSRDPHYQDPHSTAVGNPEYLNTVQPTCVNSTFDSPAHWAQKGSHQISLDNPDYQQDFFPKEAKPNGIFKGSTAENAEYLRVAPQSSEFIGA
Nature of the test: HTRF Phospho EGFR TMLRCS assay (cellular). The conditions noted are these: BaF3-TMLRCS cells, 4 hours incubation. The test is classed as cell-based. The procedure:
HTRF Phospho EGFR TMLRCS Assay (Cellular)
BaF3-TMLRCS cell line were obtained from Crownbio (San Diego, Calif., USA). Cells were maintained at 37° C., 5% CO2 in RPMI ATCC (Gibco 31870)+2 mM Glutamine+0.5 μg/ml Puromycin supplemented with 10% fetal bovine serum (FBS) (Gibco).
Cells are transferred as above to Greiner Bio-One, Nr. 784-08 micro-titerplate at 20000 cells/well in 12.5 μl of growth medium/well after the plates had been pre-filled with 12.5 nl of DMSO solutions of the to be tested compounds (in dose response) or DMSO only. After spinning the plates at 300×g for 30 seconds the cells were incubated for 4 hours at 37 C, 5% CO2, 95% humidity. The cells were lysed by adding to the compound mix 4 μl/well of the supplemented lysis buffer (Cis-bio, Phospho-EGFR HTRF kit, 64EG1PEH), followed by incubation for 30 min at room temperature with shaking (400 rpm). The plates were then frozen and stored overnight at −80 C. On the next day and after thawing the plates, 4 μl of a mixture of anti-Phospho-EGFR Cryptate and of anti-Phospho-EGFR-d2 antibody solutions prepared in the supplied detection buffer was added to each well. The lidded plates were then incubated for 4 h at room temperature before reading the fluorescence emission at 616 and 665 nm using an Envision reader (Perkin Elmer). Data was analyzed in similar fashion as above using the normalized ratio of the 665 to 616 signals multiplied by 10000.
Turning to `O=C(Nc1nccs1)C(c1ncn2c1C[C@@H](F)C2)N1Cc2c(cc(C#Cc3ccc(CN4CCC(CO)CC4)cc3)cc2C(F)(F)F)C1=O` (mixture of isomers) [Example 6, (2RS)-2-[(6R)-6-Fluoro-6,7-dihydro-5H-pyrrolo[1,2-c]imidazol-1-yl]-2-[6-[2-[4-[[4-(hydroxymethyl)-1-piperidyl]methyl]phenyl]ethynyl]-1-oxo-4-(trifluoromethyl)isoindolin-2-yl]-N-thiazol-2-yl-acetamide], inhibition was half-maximal at 1 nM (IC50). Compound `CCN1CCC(c2ccc(-c3cc4c(c(C(F)F)c3)CN(C(C(=O)Nc3nccs3)c3ncn5c3C[C@@H](F)C5)C4=O)cc2)CC1` (mixture of isomers) [Example 7, (2RS)-2-[4-(Difluoromethyl)-6-[4-(1-ethyl-4-piperidyl)phenyl]-1-oxo-isoindolin-2-yl]-2-[(6R)-6-fluoro-6,7-dihydro-5H-pyrrolo[1,2-c]imidazol-1-yl]-N-thiazol-2-yl-acetamide] came in with an IC50 of 16 nM. In the case of `O=C(Nc1nccs1)C(c1ncn2c1C[C@@H](F)C2)N1Cc2c(cc(C#Cc3ccc(CN4CC5(CC(O)C5)C4)cc3)cc2C(F)(F)F)C1=O` (mixture of isomers) [Example 9, (2RS)-2-[(6R)-6-Fluoro-6,7-dihydro-5H-pyrrolo[1,2-c]imidazol-1-yl]-2-[6-[2-[4-[(6-hydroxy-2-azaspiro[3.3]heptan-2-yl)methyl]phenyl]ethynyl]-1-oxo-4-(trifluoromethyl)isoindolin-2-yl]-N-thiazol-2-yl-acetamide], the IC50 was determined as 3 nM. As to `O=C(Nc1nccs1)C(c1ncn2c1C[C@@H](F)C2)N1Cc2c(cc(C#Cc3ccc(CN4CCC(CO)CC4)cc3)cc2C(F)F)C1=O` (mixture of isomers) [Example 10, (2RS)-2-[4-(Difluoromethyl)-6-[2-[4-[[4-(hydroxymethyl)-1-piperidyl]methyl]phenyl]ethynyl]-1-oxo-isoindolin-2-yl]-2-[(6R)-6-fluoro-6,7-dihydro-5H-pyrrolo[1,2-c]imidazol-1-yl]-N-thiazol-2-yl-acetamide], the IC50 was found to be 2 nM. `O=C(Nc1nccs1)C(c1ncn2c1C[C@@H](F)C2)N1Cc2c(cc(C#Cc3ccc(CN4CCCC(O)CC4)cc3)cc2C(F)(F)F)C1=O` (mixture of isomers) [Example 11, (2RS)-2-[(6R)-6-fluoro-6,7-dihydro-5H-pyrrolo[1,2-c]imidazol-1-yl]-2-[6-[2-[4-[[(4RS)-4-hydroxyazepan-1-yl]methyl]phenyl]ethynyl]-1-oxo-4-(trifluoromethyl)isoindolin-2-yl]-N-thiazol-2-yl-acetamide]: it took 2 nM to reach half-maximal inhibition (IC50). Take `CCN1CCC(c2ccc(-c3cc4c(c(C(F)(F)F)c3)CN(C(C(=O)Nc3nccs3)c3ncn5c3CCC5)C4=O)cc2)CC1` (racemic) [Example 2, (2RS)-2-(6,7-Dihydro-5H-pyrrolo[1,2-c]imidazol-1-yl)-2-[6-[4-(1-ethyl-4-piperidyl)phenyl]-1-oxo-4-(trifluoromethyl)isoindolin-2-yl]-N-thiazol-2-yl-acetamide]: half-maximal inhibition (IC50) required 20 nM. Compared with the last compound, the IC50 is about 10-fold higher. Consider `O=C(Nc1nccs1)C(c1ncn2c1CCC2)N1Cc2c(cc(C#Cc3ccc(CN4CCC(CO)CC4)cc3)cc2C(F)(F)F)C1=O` (racemic) [Example 3, (2RS)-2-(6,7-Dihydro-5H-pyrrolo[1,2-c]imidazol-1-yl)-2-[6-[2-[4-[[4-(hydroxymethyl)-1-piperidyl]methyl]phenyl]ethynyl]-1-oxo-4-(trifluoromethyl)isoindolin-2-yl]-N-thiazol-2-yl-acetamide], for which the IC50 stood at 1 nM. Turning to `CCN1CCC(c2ccc(-c3cc4c(c(C(F)F)c3)CN(C(C(=O)Nc3nccs3)c3ncn5c3CCC5)C4=O)cc2)CC1` (racemic) [Example 4, (2RS)-2-[4-(Difluoromethyl)-6-[4-(1-ethyl-4-piperidyl)phenyl]-1-oxo-isoindolin-2-yl]-2-(6,7-dihydro-5H-pyrrolo[1,2-c]imidazol-1-yl)-N-thiazol-2-yl-acetamide], inhibition was half-maximal at 11 nM (IC50). The compound `O=C(Nc1nccs1)C(c1ncn2c1CCC2)N1Cc2c(cc(C#Cc3ccc(CN4CCC(CO)CC4)cc3)cc2C(F)F)C1=O` (racemic) [Example 5, (2RS)-2-[4-(Difluoromethyl)-6-[2-[4-[[4-(hydroxymethyl)-1-piperidyl]methyl]phenyl]ethynyl]-1-oxo-isoindolin-2-yl]-2-(6,7-dihydro-5H-pyrrolo[1,2-c]imidazol-1-yl)-N-thiazol-2-yl-acetamide] gave an IC50 of 3 nM. This IC50 lies about 3.7-fold lower than the previous one. `CCN1CCC(c2ccc(-c3cc4c(c(C(F)F)c3)CN(C(C(=O)Nc3nccs3)c3ncn5c3CCC5)C4=O)cc2)[C@@H](F)C1` (mixture of isomers) [Example 8, (2RS)-2-[4-(Difluoromethyl)-6-[4-1(3R,4R)-1-ethyl-3-fluoro-4-piperidyl]phenyl]-1-oxo-isoindolin-2-yl]-2-(6,7-dihydro-5H-pyrrolo[1,2-c]imidazol-1-yl)-N-thiazol-2-yl-acetamide and (2RS)-2-[4-(difluoromethyl)-6-[4-1(3S,4S)-1-ethyl-3-fluoro-4-piperidyl]phenyl]-1-oxo-isoindolin-2-yl]-2-(6,7-dihydro-5H-pyrrolo[1,2-c]imidazol-1-yl)-N-thiazol-2-yl-acetamide] showed an IC50 of 18 nM.
